Results as given in patent US5235045A, “Non-azo naphthalimide dyes” (priority 1992, dated 1993).
Like-named read-outs stand apart in the source and are kept apart here.

Tests used:
[1] = test system: Herpes simplex virus type 1; assay: Effect of DiEd6Br and light on HSV-1 containing 15% fetal calf serum and human blood platelets (plaque assay); assay type: cell-based, MacIntyre strain; conditions: for log reduction at 0.156 µM / log reduction at 0.625 µM: Human alphaherpesvirus 1, Platelet, light or radiation study, read-out: Log10 Reduction
[2] = test system: Human serum Albumen (HSA); assay: Protein crosslinking with DiEd6Br: human serum albumen; assay type: biochemical; conditions: 30.0 μM, 791 J/cm^2
[3] = test system: various individual protein preparations; assay: Protein cross-linking with DiEd6Br and light (gel electrophoresis, general); assay type: biochemical
Source text: Concomitant with the appearance of the heavier species with photoillumination with the decrease in intensity of electromigrated bands of the initially present protein.

## CCCCCCN1C(=O)c2cccc3c(NCCNC(=O)CCCCC(=O)NCCNc4c(Br)cc5c6c(cccc46)C(=O)N(CCCCCC)C5=O)c(Br)cc(c23)C1=O [Compound XLIV]
[1]; 0.156 μM, 5 J/cm^2
  PFU/ml: 7.4 × 10^7 PFU/ml
  log reduction at 0.156 µM: 0.01
[1]; 0.156 μM, 10 J/cm^2
  PFU/ml: 6.0 × 10^7 PFU/ml
  log reduction at 0.156 µM: 0.1
[1]; 0.156 μM, 20 J/cm^2
  PFU/ml: 1.5 × 10^7 PFU/ml
  log reduction at 0.156 µM: 0.7
[1]; 0.156 μM, 40 J/cm^2
  PFU/ml: 4.5 × 10^6 PFU/ml
  log reduction at 0.156 µM: 1.22
[1]; 0.156 μM, 60 J/cm^2
  PFU/ml: 1.5 × 10^6 PFU/ml
  log reduction at 0.156 µM: 1.7
[1]; 625 μM (so in the source), 5 J/cm^2
  PFU/ml: 5.0 × 10^5 PFU/ml
[1]; 625 μM (so in the source), 10 J/cm^2
  PFU/ml: 4.5 × 10^5 PFU/ml
[1]; 625 μM (so in the source), 20 J/cm^2
  PFU/ml: 2.0 × 10^4 PFU/ml
[1]; 625 μM (so in the source), 40 J/cm^2
  PFU/ml: 1.1 × 10^3 PFU/ml
[1]; 625 μM (so in the source), 60 J/cm^2
  PFU/ml: None detected
[1]; 5 J/cm^2
  log reduction at 0.625 µM: 2.18
[1]; 10 J/cm^2
  log reduction at 0.625 µM: 2.22
[1]; 20 J/cm^2
  log reduction at 0.625 µM: 3.58
[1]; 40 J/cm^2
  log reduction at 0.625 µM: 4.84
[1]; 60 J/cm^2
  log reduction at 0.625 µM: 7
[1]; as low as 0.625 mM, 60 J/cm^2, 15% serum proteins and platelets
  kill of HSV-1: > 99.86%
[2]
  heavier bands: many ill separated heavier bands merging together near
[2]; first species
  Inferred Crosslinked Species: 2 HSA
[2]; second species
  Inferred Crosslinked Species: 3 HSA
[2]; third species
  Inferred Crosslinked Species: 3 HSA
[2]; 2 HSA units
  Inferred Crosslinked Species, Gel mw: 120 kD
[2]; 3 HSA units (so in the source), third species
  Inferred Crosslinked Species, Gel mw: 240 kD
[2]; 3 HSA units, second species
  Inferred Crosslinked Species, Gel mw: 180 kD
[3]; no light
  heavier molecular species in absence of light: complete absence of these species
[3]; photoirradiation nominally 420 nm
  heavier molecular species: formation of slower electromigrating, thus heavier, molecular species
